Legend:
[1] = tested on: bronchoconstrictor response induced by leukotriene D4; assay: Inhibition test of bronchoconstriction in guinea pig; assay type: in vivo; design: unit not given here; settings: 2 hours before i.v. leukotriene D4 (3 μg/kg), anesthetized male Hartley guinea pig
Description: Male Hartley guinea pig weighing about 450 g was anesthetized with sodium pentobarbital (30 mg/kg,i.p.), and the changes in transpulmonary pressure was measured according to the modified method of Konzett-Rössler (J. Harvey et al., J. Pharmacol. Method. 9, 147-155, 1983). Bronchoconstrictor response was induced by injection of leukotriene D4 (3 μg/kg) into left jugular vein. Further, indomethacin and propranolol were injected into vein of the animal, prior to the injection of leukotriene D4. Test compounds suspended in 5% solution of Gum Arabic were administered orally 2 hours before the injection of leukotriene D4.

| melting point [°C] | Compound | Inhibition ([1]; dose 3.125 mg/kg p.o.) | Inhibition ([1]; dose 6.25 mg/kg p.o.) | Inhibition ([1]; dose 12.5 mg/kg p.o.) | Inhibition ([1]; dose 50 mg/kg p.o.) | Inhibition ([1]; dose 1.56 mg/kg p.o.) |
| --- | --- | --- | --- | --- | --- | --- |
| 65 to 66 | CCCc1c(SCCCOc2ccc(C(C)=O)c(OCCCC(=O)OCC)c2CCC)ccc(C(C)=O)c1O [Example 1, Ethyl 4-[6-acetyl-3-[3-(4-acetyl-3-hydroxy-2-propylphenylthio)propoxy]-2-propylphenoxy]butyrate] | – | – | – | – | – |
| 87 to 88 | CCCc1c(OCCCSc2ccc(C(C)=O)c(OCCCC(=O)OCC)c2CCC)ccc(C(C)=O)c1O [Example 23, Ethyl 4-[6-acetyl-3-[3-(4-acetyl-3-hydroxy-2-propyl-phenoxy)propylthio]-2-propylphenoxy]butyrate] | – | – | – | – | – |
| 74 to 76 | CCCc1c([S+]([O-])CCCOc2ccc(C(C)=O)c(OCCCC(=O)OCC)c2CCC)ccc(C(C)=O)c1O (stereo not drawn) [Example 31, Ethyl 4-[6-acetyl-3-[3-(4-acetyl-3-hydroxy-2-propyl-phenylsulfinyl)propoxy]-2-propylphenoxy]butyrate] | – | – | – | – | – |
| 77 to 79 | CCCc1c(S(=O)(=O)CCCOc2ccc(C(C)=O)c(OCCCC(=O)OCC)c2CCC)ccc(C(C)=O)c1O [Example 32, Ethyl 4-[6-acetyl-3-[3-(4-acetyl-3-hydroxy-2-propyl-phenylsulfonyl)propoxy]-2-propylphenoxy]butyrate] | – | – | – | – | – |
| – | CCCc1c(SCCCOc2ccc(C(C)=O)c(OCCCC(=O)O)c2CCC)ccc(C(C)=O)c1O [Example 33, 4-[6-Acetyl-3-[3-(4-acetyl-3-hydroxy-2-propyl-phenylthio)propoxy]-2-propylphenoxy]butyric acid] | 28.0 | 40.2 | 63.9 | 94.8 | – |
| – | CCCc1c(SCCCOc2ccc(C(C)=O)c(OCCCCCC(=O)O)c2CCC)ccc(C(C)=O)c1O [Example 35] | – | 10.7 | 51.3 | 92.4 | – |
| – | CCCc1c(SCCCSc2ccc(C(C)=O)c(OCCCC(=O)O)c2CCC)ccc(C(C)=O)c1O [Example 45] | 54.2 | 71.3 | 72.7 | 96.2 | 22.4 |
| – | CCCc1c(SCCCSc2ccc(C(C)=O)c(OCCCCC(=O)O)c2CCC)ccc(C(C)=O)c1O [Example 46] | 38.5 | 46.6 | 37.5 | 94.2 | – |
| – | CCCc1c(SCCCSc2ccc(C(C)=O)c(OCCCCCC(=O)O)c2CCC)ccc(C(C)=O)c1O [Example 47] | 29.1 | – | 72.5 | 92.9 | – |
| – | CCCc1c(SCCCSc2ccc(C(C)=O)c(OCCCCCCC(=O)O)c2CCC)ccc(C(C)=O)c1O [Example 48] | 33.6 | – | 79.7 | 90.7 | – |
| – | CCCc1c(SCCCSc2ccc(C(C)=O)c(OCCCCCCCCC(=O)O)c2CCC)ccc(C(C)=O)c1O [Example 49] | – | 19.1 | 58.9 | 77.7 | – |
| – | CCCc1c(OCCCSc2ccc(C(C)=O)c(OCCCC(=O)O)c2CCC)ccc(C(C)=O)c1O [Example 53] | 15.2 | 50.4 | 60.4 | 66.7 | – |
| – | CCCc1c(OCCCSc2ccc(C(C)=O)c(OCCCCCC(=O)O)c2CCC)ccc(C(C)=O)c1O [Example 55] | – | 36.4 | 45.0 | 88.0 | – |

Reference: USRE38921E1, “Phenoxyalkylcarboxylic acid derivatives and process for their preparations” (Kyorin Pharmaceutical Co., Ltd., priority 1988, dated 2005)
